Holding throughout (experiment): DTP human tumour cell line panel, 48 h
The subject of assay [1] is SNB-75.
Assay [2] has as its system KM12.
Assay [3] deals with SK-OV-3.
Assay [4] concerns OVCAR-3.
Assay [5] relates to OVCAR-5.
The test system of assay [6] is NCI/ADR-RES.
Assay [7] concerns Malme-3M.
For assay [8], the system named is A549.
Assay [9] relates to CCRF-CEM.
For assay [10], the system named is SK-MEL-28.
The subject of assay [11] is SF-295.
Assay [12] relates to NCI-H460.
Assay [13] relates to DU-145.
Assay [14] has as its system HT-29.
For assay [15], the system named is LOX IMVI.
Assay [16] has as its system PC-3.
Assay [17] deals with NCI-H23.
Assay [18] relates to K562.
Assay [19] has as its system HL-60.
Assay [20] deals with RXF 393.

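Growth conditions: 96-well plates. Treatment: test compound, 48 hours, 5 concentrations. Analysis: linear interpolation between bracketing concentrations; unreached endpoints set to highest concentration. GI50 is the concentration that inhibits growth by half.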 Active and inactive are the calls of the source. Rule as the data show it: active = GI50 up to about 1.1 µM and inactive = higher. Square brackets hold non-standard residues; d marks the D form. Peptide text beside a SMILES is read from it. * marks the point of attachment. ξ: configuration not given here. ξF = NC(Cc1ccccc1)C(=O)O; Cbz = O=C(OCc1ccccc1)*; Aib = CC(C)(N)C(=O)O

One may read the GI50 as the concentration that inhibits growth by half. As to `CC(C)OC(=O)NNc1cc(Cl)ccc1Cl`, the GI50 in assay [1] is 58.3 µM (inactive); in [2] it was 65.3 µM (inactive); in assay [3] it was > 100 µM (inactive); in assay [4] it was > 100 µM (inactive); in assay [5], > 100 µM (inactive); in [6], > 100 µM (inactive). In addition, the GI50 in assay [7] was 35.6 µM (inactive); in assay [8], 64 µM (inactive); in [9], 59.7 µM (inactive); in assay [10] it was > 100 µM (inactive); in assay [11], 62.8 µM (inactive); in [12], 80.7 µM (inactive). For the same molecule, the GI50 is > 100 µM (inactive) in assay [13]; > 100 µM (inactive) in [14]; 67.3 µM (inactive) in assay [15]; 56.8 µM (inactive) in assay [16]; > 100 µM (inactive) in assay [17]; 19.2 µM (inactive) in assay [18]. In [19], the GI50 is 21.7 µM (inactive).
Take `CN(C)CCCn1c(Cc2ccccc2)nc2cc(C(F)(F)F)ccc21`: the GI50 in assay [1] was 52.8 µM (inactive); in assay [2] it was 15.7 µM (inactive); in [3] it was 23.5 µM (inactive); in assay [4], 27.9 µM (inactive); in assay [5] it was 78.7 µM (inactive); in [6] it was 65.6 µM (inactive). The GI50 in [7] is 17.7 µM (inactive); in assay [20], 21.2 µM (inactive); in assay [8] it was 14.7 µM (inactive); in [9] it was 19.4 µM (inactive); in assay [10] it was 19.1 µM (inactive); in assay [11], 17.1 µM (inactive). Further, the GI50 in assay [12] is 19.6 µM (inactive); in assay [13] it was 67.5 µM (inactive); in [14], 20.7 µM (inactive); in assay [15] it was 18 µM (inactive); in assay [16], 29 µM (inactive); in assay [17], 29.5 µM (inactive). The GI50 in assay [18] is 18.5 µM (inactive).
Turning to `OCCCSc1ccccc1SCCCO`, the GI50 in [1] is 17.2 µM (inactive); in assay [2], > 100 µM (inactive); in [3], > 100 µM (inactive); in [4] it was > 100 µM (inactive); in assay [5], > 100 µM (inactive); in assay [6], > 100 µM (inactive). For the same molecule, the GI50 in [8], in assay [9], in assay [10], in assay [11], in [12] and in [13] was > 100 µM (inactive) throughout. In addition, the GI50 in assay [14], in [15], in assay [16], in [17], in [18] and in assay [19] was > 100 µM (inactive) each time.
Take `COC(=O)CCc1ccc2c(c1)CCC2`: the GI50 in assay [1], in assay [2], in assay [3], in assay [4], in assay [5] and in assay [6] was > 100 µM (inactive) throughout. Further, the GI50 in assay [7], in [8], in assay [9], in assay [10], in [11] and in [12] was > 100 µM (inactive) in each case. Also, the GI50 in [13], in assay [14], in [15], in assay [16], in assay [17] and in assay [19] was > 100 µM (inactive) in each case.
For `Nc1ccc(C(=O)c2cn(CCN3CCOCC3)c3ccccc23)c2ccccc12`, the GI50 in assay [2] was 31.1 µM (inactive); in [3] it was > 100 µM (inactive); in assay [4], 32.6 µM (inactive); in [5], 39.3 µM (inactive); in [6], 22.7 µM (inactive); in assay [7], 34.1 µM (inactive). Besides, the GI50 in assay [8] was 40.9 µM (inactive); in assay [9] it was 3.94 µM (inactive); in assay [10] it was 38.4 µM (inactive); in assay [11], 33.3 µM (inactive); in assay [12] it was 34.3 µM (inactive); in assay [13], 63 µM (inactive). Also, the GI50 in assay [14] is 22.5 µM (inactive); in assay [15], 23.4 µM (inactive); in assay [16] it was 36.1 µM (inactive); in assay [17], 23.8 µM (inactive); in assay [18], 17.3 µM (inactive); in assay [19] it was 15.4 µM (inactive).
Consider `COc1cc2c(cc1OC)C1C=NC(C2)c2cc(OC)c(OC)cc21` (stereo not drawn), for which the GI50 in [1], in [2], in assay [3], in assay [4], in assay [5] and in assay [6] was > 100 µM (inactive) in each case. The GI50 in assay [8] was 78.7 µM (inactive); in assay [10] it was > 100 µM (inactive); in assay [11], > 100 µM (inactive); in [12] it was > 100 µM (inactive); in assay [13], > 100 µM (inactive); in assay [14], > 100 µM (inactive). The GI50 was > 100 µM (inactive) in [15], > 100 µM (inactive) in [16], 54.2 µM (inactive) in [18] and 50.7 µM (inactive) in assay [19].
For `CC(C)(NC(=O)OCc1ccccc1)C(=O)NC(Cc1ccccc1)C(=O)O` (stereo not drawn) (Cbz-[Aib]-[ξF]-OH), the GI50 in assay [1], in assay [2], in assay [3], in [4], in assay [5] and in assay [6] was > 100 µM (inactive) throughout. Besides, the GI50 in [7], in assay [8], in assay [9], in assay [10], in assay [11] and in assay [12] was > 100 µM (inactive) throughout. For the same molecule, the GI50 in assay [13], in assay [14], in [15], in assay [16], in [17] and in assay [18] was > 100 µM (inactive) throughout.
On to `COc1ccc(/N=N/C(=N\c2ccc(Cl)cc2)c2ccc(N(CCC#N)CCC#N)cc2)cc1`, for which the GI50 in assay [1] was 39 µM (inactive); in [2], 15.6 µM (inactive); in assay [3], > 100 µM (inactive); in [4] it was 23.9 µM (inactive); in assay [5], 47 µM (inactive); in assay [6], 10.5 µM (inactive). Besides, the GI50 in assay [20] is 12.7 µM (inactive); in assay [8], 47.6 µM (inactive); in [9], < 0.01 µM (active); in assay [10], > 100 µM (inactive); in assay [11], 2.2 µM (inactive); in [12], 10.1 µM (inactive). For the same molecule, the GI50 is 20 µM (inactive) in [13]; > 100 µM (inactive) in [14]; 25.5 µM (inactive) in [16]; 40.9 µM (inactive) in assay [17]; 26.4 µM (inactive) in assay [18].

Values taken from ChEMBL document CHEMBL1201862, “PubChem BioAssay data set” (2004).
